Legend:
[1] = test system: salivatory effect of oxotremorine; assay: Potentiation of the cholinergic effects of oxotremorine: salivatory (peripheral) effect; format: in vivo, male NMRI mice; conditions: mice
Procedure: (§1) 1. Potentiation of the cholinergic effects of oxotremorine. […] The degree of peripheral cholinergic activation is measured by the salivatory effect quantified by the following rating system:
score 1: a little saliva is found around the teeth:
score 2: the saliva forms a narrower band around the mouth;
score 4: the saliva wets a surface underneath the chin;
score 6: the saliva runs from the mouth, for example onto the forelegs.
The intermediate scores are not used, and the saliva is wiped away after each observation.
(§2) Male NMRI mice (20 to 25 g) are divided into four groups of five animals, that is to say: one control group and three treated groups. The compound to be tested is administered intraperitoneally (to the three treated groups) 20 minutes before the administration of the oxotremorine, at a dose which differs for each of the treated groups. […] For each of the groups, the individual scores recorded at each observation period are summed; this enables to plot a curve showing the sum of the scores as a function of time, which is characteristic for each group.
(§3) The mean values of the areas under the curves obtained for each of the treated groups are compared with the mean value of the area under the curve corresponding to the control group and is subjected to statistical analysis by the Mann-Whitney method. From this comparison, a "minimum active dose" can be determined. […]

[2] = test system: tremogenic effect of oxotremorine; assay: Potentiation of the cholinergic effects of oxotremorine: tremogenic (central) effect; format: in vivo, male NMRI mice; conditions: mice
Procedure: as §1
The degree of central cholinergic activation is measured by the tremogenic effect quantified by the following rating system:
score 1: slight and periodic occasional tremors;
score 2: moderate and slight tremors often repeated;
score 4: accentuated tremors, but interrupted by periods of calm:
score 6: very accentuated and almost continuous tremors.
as §2, §3

[3] = test system: hyperactivity induced by scopolamine; assay: Inhibition of hyperactivity induced by scopolamine; format: in vivo, male Sprague-Dawley rats; conditions: rats, administered more than 15 minutes before the measurements
[4] = test system: effects of scopolamine on the band from 6.4 to 9.6 Hz in the EEG; assay: Inhibition of the effects of scopolamine on the electroencephalogram (EEG); format: in vivo, male albino Sprague-Dawley rats; design: inhibition: dose or concentration left out as unconfirmed
Procedure: Male albino Sprague-Dawley SPF rats (160 to 200 g) are used in this test. When the animals are 3 months old, 5 cortical electrodes are implanted permanently, aseptically and under a general anesthesia: one inert electrode, one left and one right frontal electrode, and one left and one right occipital electrode (P. ETEVENON, loc.cit.). The test is carried out when the animals are about 15 months old. In the meantime, the animals are kept in individual cages. They are given water and food ad libitum and are subjected to a regular daily cycle comprising a period of darkness between 6 o'clock in the evening and 6 o'clock in the morning. At the same time, the animals are progressively acclimatized to the cages of the sound-proof cabin which they will subsequently occupy for recording of the electroencephalograms, as well as to the experimental conditions, by intraperitoneal administration of placebo. The products are administered immediately before the EEG is recorded. The rats are divided into groups of 8 animals and 16 samples of the EEG spectra are recorded over 5 seconds (two EEG spectra per animal). The spectra obtained are then analyzed by computer (rapid Fourier transform), which enables the average of the 16 measurements performed to be determined for each group and the overall intensity of the EEG spectrum and the distribution of this intensity (in %) in the various frequency bands to be deduced for each animal. This operation (recording of the spectra) is repeated 9 times (total

[5] = test system: amnesia induced by scopolamine; assay: Multiple-trial passive avoidance: mnemic retention, amnesia induced by scopolamine; format: in vivo, male Sprague-Dawley rats; conditions: rats
Procedure: 4. Multiple-trial passive avoidance. The compounds of the present invention have been studied with the aim of
Columns 3 and 4 show the results obtained in the test used to evaluate the learning. The figures indicate the average number of trials needed for a control animal (group 1) or an animal treated (group 2) with the compound to learn to remain on the rubber mat for 180 seconds in order to avoid the electric shock. The results were analyzed by the Student test.

[6] = 20 minutes after administration at the minimum active dose

Question: With `COC(=O)C1=CCCN(C)C1` [arecoline, methyl 1,2,5,6-tetrahydro-1-methyl-3-pyridinecarboxylate] as the molecule, how does the “potentiation of the salivatory effect of oxotremorine 20 minutes after administration” value [1, 6] read?
Answer: gives no potentiation

Question: What about the “potentiation of the tremogenic effect of oxotremorine 20 minutes after administration” value [2, 6] of the same molecule?
Answer: gives no potentiation

Question: For `O=C1CCCN1CC#CCN1CCCC1` [oxotremorine], which minimal effective dose ([1]; Mus musculus, ip, intraperitoneal, read-out: minimum dose of oxotremorine which causes salivation) is on record?
Answer: ~0.05 mg/kg

Question: And the minimal effective dose ([2]; Mus musculus, ip, intraperitoneal, read-out: minimum dose of oxotremorine which causes tremors)?
Answer: ~0.05 mg/kg

Question: `CNC(=O)Oc1ccc2c(c1)[C@]1(C)CCN(C)[C@@H]1N2C` [physostigmine, reference compound] was tested. Which “inhibitory activity on scopolamine hyperactivity, administered more than 15 minutes before measurements” value [3] did it give?
Answer: inactive

Question: What about the inhibition ([4]; Rattus norvegicus, ip, read-out: Inhibition (percentage of reduction in the increase in the intensity of the band from 6.4 to 9.6 Hz)) of the same molecule?
Answer: 76.8%

Question: What about the “inhibition of the effects which scopolamine exerts on the electroencephalogram” value ([4]; rats, i.p.) of the same molecule?
Answer: inhibit the effects which scopolamine exerts on the electroencephalogram

Question: And the “influence on the amnesing effect of scopolamine” value ([5]; i.p., group 4 vs. group 3)?
Answer: favorable action against the amnesing effect of scopolamine, similar to that of the compounds of the invention

Question: Which “amnesing effect” value ([5]; group 3, scopolamine alone) does the source give for `CN1[C@@H]2C[C@@H](OC(=O)[C@H](CO)c3ccccc3)C[C@H]1[C@@H]1O[C@@H]12` [scopolamine] here?
Answer: very pronounced

Reference: patent US4956367A, “2-amino-4-morpholino-6-propyl-1,3,5-triazines” (U C B S.A., priority 1988, dated 1990)
